Target: Acetylcholinesterase (Homo sapiens) (UniProt P22303)
Assay: Inhibition of AChE at 95 umol

Sequence of Acetylcholinesterase (Homo sapiens) (P22303 whole entry): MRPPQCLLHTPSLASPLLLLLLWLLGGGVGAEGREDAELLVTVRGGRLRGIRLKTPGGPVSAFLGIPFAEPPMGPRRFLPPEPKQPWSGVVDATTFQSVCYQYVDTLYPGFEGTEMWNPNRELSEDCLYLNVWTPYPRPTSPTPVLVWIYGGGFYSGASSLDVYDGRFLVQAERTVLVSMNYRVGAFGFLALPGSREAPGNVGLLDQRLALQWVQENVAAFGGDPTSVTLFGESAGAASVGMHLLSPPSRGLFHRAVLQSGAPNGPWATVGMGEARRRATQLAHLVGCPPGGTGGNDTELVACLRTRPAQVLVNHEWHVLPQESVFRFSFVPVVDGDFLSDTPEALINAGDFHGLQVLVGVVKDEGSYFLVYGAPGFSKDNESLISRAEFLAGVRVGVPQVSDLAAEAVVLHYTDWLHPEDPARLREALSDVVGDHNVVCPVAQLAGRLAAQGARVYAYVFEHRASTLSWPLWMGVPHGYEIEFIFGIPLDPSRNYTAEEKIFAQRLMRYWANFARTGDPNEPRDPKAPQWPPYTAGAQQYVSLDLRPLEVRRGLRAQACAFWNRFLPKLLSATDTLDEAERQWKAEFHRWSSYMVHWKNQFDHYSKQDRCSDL

In the case of `C[C@H]1CC(=O)N2CCCC3=C(C1)C(=O)O[C@H]3CCC2`, the inhibition is reported as 27%.

From ChEMBL document CHEMBL1150116, “Huperzine R, a novel 15-carbon Lycopodium alkaloid from Huperzia serrata” (J Nat Prod, 2002)
